Test results: patent US20260265252A1, “SOLID STATE FORMS OF IMIPRIDONE DERIVATIVE” (CHIMERIX, INC., priority 2024, published 2026)
Where a name gives a salt, the structure may show the parent alone.

What was measured:
[1] = Dynamic vapor sorption (DVS) water uptake; assay type: physicochemical; conditions: for total water uptake / water uptake: DVS; for hygroscopicity: characterised by DVS water uptake
Text: Dynamic Vapor Sorption (DVS)
Vapor sorption data were collected on a Surface Measurement System DVS Intrinsic instrument. Samples were not dried prior to analysis. Sorption and desorption data were collected over the stated range from at 10% RH increments under a nitrogen purge. The equilibrium criterion used […]

[2] = Relative humidity (RH) experiments / exposure to moisture, solid form change; assay type: physicochemical; conditions: for form change: exposure to moisture / relative humidity (RH) experiments
Text: The three batches of Compound I (ONC206·2HCl) manufactured to date are described below. The first two processes consistently produced Form 1 (i.e., desolvated anhydrous form, Form 1).

[3] = Solid form stability at ambient conditions; assay type: physicochemical
[4] = test system: diffuse midline glioma, H3 K27M-mutant (DMG H3K27M); conditions: patients with diffuse midline glioma; cited from earlier work

Q: What does the source list for `O=C1C2=C(CCN(Cc3ccccc3)C2)N2CCN=C2N1Cc1ccc(F)cc1F` [Compound I Besylate Form A, 7-benzyl-4-(2,4-difluorobenzyl)-2,4,6,7,8,9-hexahydroimidazo[1,2-a]pyrido[3,4-e]pyrimidin-5(1H)-one]?
A: total water uptake [1]: 0.3%; total water uptake ([1]; moles of water): < 0.1 mol; hygroscopicity [1]: non-hygroscopic; water uptake ([1]; relative humidity of up to 95%): 0.3%

Q: Which total water uptake [1] does the source give for `O=C1C2=C(CCN(Cc3ccccc3)C2)N2CCN=C2N1Cc1ccc(F)cc1F` [Compound I Form 1, 7-benzyl-4-(2,4-difluorobenzyl)-2,4,6,7,8,9-hexahydroimidazo[1,2-a]pyrido[3,4-e]pyrimidin-5(1H)-one] here?
A: 7.5%

Q: What about the total water uptake ([1]; moles of water) of the same molecule?
A: ~ 2.2 moles

Q: What about the hygroscopicity [1] of the same molecule?
A: hygroscopic

Q: And the water uptake ([1]; relative humidity of 65% to 85%)?
A: 6.7%

Q: What about the water uptake ([1]; relative humidity of 85% to 95%) of the same molecule?
A: 0.3%

Q: What about the water uptake ([1]; relative humidity of up to 65%) of the same molecule?
A: 0.5%

Q: And the form change [2]?
A: tends to convert into Form 2

Q: And the hygroscopicity ([2]; statement in Example 1)?
A: hygroscopic

Q: For `O=C1C2=C(CCN(Cc3ccccc3)C2)N2CCN=C2N1Cc1ccc(F)cc1F` [Compound I Form 2, 7-benzyl-4-(2,4-difluorobenzyl)-2,4,6,7,8,9-hexahydroimidazo[1,2-a]pyrido[3,4-e]pyrimidin-5(1H)-one], which total water uptake [1] is on record?
A: 2.5%

Q: What about the total water uptake ([1]; moles of water) of the same molecule?
A: ~ 0.7 moles

Q: What about the hygroscopicity [1] of the same molecule?
A: hygroscopic

Q: What about the water uptake ([1]; relative humidity of 5% to 25%) of the same molecule?
A: 1.8%

Q: And the water uptake ([1]; relative humidity of 25% to 95%)?
A: 0.6%

Q: What about the form change [2] of the same molecule?
A: no form change was observed

Q: For `O=C1C2=C(CCN(Cc3ccccc3)C2)N2CCN=C2N1Cc1ccc(F)cc1F` [Compound I Form A, 7-benzyl-4-(2,4-difluorobenzyl)-2,4,6,7,8,9-hexahydroimidazo[1,2-a]pyrido[3,4-e]pyrimidin-5(1H)-one], which total water uptake [1] is on record?
A: 0.3%

Q: What about the total water uptake ([1]; moles of water) of the same molecule?
A: < 0.1 mol

Q: What about the hygroscopicity [1] of the same molecule?
A: non-hygroscopic

Q: What about the water uptake ([1]; relative humidity of up to 95%) of the same molecule?
A: 0.3%

Q: Which total water uptake [1] does the source give for `O=C1C2=C(CCN(Cc3ccccc3)C2)N2CCN=C2N1Cc1ccc(F)cc1F` [Compound I Fumarate Form A, 7-benzyl-4-(2,4-difluorobenzyl)-2,4,6,7,8,9-hexahydroimidazo[1,2-a]pyrido[3,4-e]pyrimidin-5(1H)-one] here?
A: 0.7%

Q: What about the total water uptake ([1]; moles of water) of the same molecule?
A: 0.1 mol

Q: What about the hygroscopicity [1] of the same molecule?
A: slightly hygroscopic

Q: And the water uptake ([1]; relative humidity of up to 95%)?
A: 0.7%

Q: For `O=C1C2=C(CCN(Cc3ccccc3)C2)N2CCN=C2N1Cc1ccc(F)cc1F` [Compound I Material 14, 7-benzyl-4-(2,4-difluorobenzyl)-2,4,6,7,8,9-hexahydroimidazo[1,2-a]pyrido[3,4-e]pyrimidin-5(1H)-one], which “stability of the solid form” value [3] is on record?
A: metastable

Q: What does the source list for `O=C1C2=C(CCN(Cc3ccccc3)C2)N2CCN=C2N1Cc1ccc(F)cc1F` [Compound I Sulfate Form A, 7-benzyl-4-(2,4-difluorobenzyl)-2,4,6,7,8,9-hexahydroimidazo[1,2-a]pyrido[3,4-e]pyrimidin-5(1H)-one]?
A: total water uptake [1]: 2.5%; total water uptake ([1]; moles of water): 1.3 mol; hygroscopicity [1]: slightly hygroscopic; water uptake ([1]; relative humidity of up to 96%): 2.5%

Q: What does the source list for `O=C1C2=C(CCN(Cc3ccccc3)C2)N2CCN=C2N1Cc1ccc(F)cc1F` [Compound I Tosylate Form A, 7-benzyl-4-(2,4-difluorobenzyl)-2,4,6,7,8,9-hexahydroimidazo[1,2-a]pyrido[3,4-e]pyrimidin-5(1H)-one]?
A: total water uptake [1]: 1.3%; total water uptake ([1]; moles of water): 0.4 mol; hygroscopicity [1]: slightly hygroscopic; water uptake ([1]; relative humidity of up to 96%): 1.3%

Q: Which tumor regressions [4] does the source give for `Cc1ccccc1CN1C(=O)C2=C(CCN(Cc3ccccc3)C2)N2CCN=C12` [ONC201] here?
A: induced durable tumor regressions
